Earlier results as cited in article PMC7395068, “The evolution of strategies to minimise the risk of human drug-induced liver injury (DILI) in drug discovery and development” (Archives of Toxicology, 2020).
Where two headings read alike, the source gives them in different places.

Experiments:
[1] = cited from earlier work
[2] = cited from earlier work; remark: listed apart in the source
rBsep = settings: In vitro Assay; ref Dawson 2012; cited from earlier work
hLiMTs = settings: In vitro Assay; ref Proctor 2017; cited from earlier work
[3] = system: THLE-Null and THLE-3A4 cells; settings: In vitro Assay; ref Gustafsson 2014; cited from earlier work
[4] = system: HepG2 cells, primary human hepatocytes; settings: In vitro Assay; ref Garside 2014; cited from earlier work
[5] = system: HepG2 C3A spheroid, BSEP, Glu/Gal in HepG2 cells, bioactivation; settings: In vitro Assay; ref Williams 2019; cited from earlier work
[6] = cited from earlier work; remark: listed apart in the source
PHH = settings: In vitro Assay; ref Proctor 2017; cited from earlier work
PHH spheroids = settings: In vitro Assay; ref Vorrink 2018; cited from earlier work
[7] = system: primary human hepatocytes, NIH3T3 fibroblasts, BSEP, CYP3A4; settings: In vitro Assay; ref Schadt 2015; cited from earlier work
[8] = system: THLE or HepG2 cells, isolated mitochondria, BSEP; settings: ref Aleo 2019, cited from earlier work; for Partition Hybrid HRM Score / Ro2 Hybrid HRM Score: In vitro Assay
[9] = system: isolated mouse liver mitochondria; settings: In vitro Assay; ref Porceddu 2012; cited from earlier work
[10] = FDA drug labelling score, ref Chen 2011
[11] = LTKB DILIrank category, ref Chen 2016
[12] = binary DILI call, ref Chen 2016
[13] = FDA drug labelling score, scale 1-8, ref Chen 2011
[14] = binary in vivo human DILI call, ref Chen 2016
[15] = human DILI, LTKB DILIrank category, ref Chen 2016
[16] = score by FDA drug labelling, scale 1-8, ref Chen 2011
[17] = binary in vivo DILI call given beside the severity category, ref Chen 2016
[18] = human DILI concern category (LTKB DILIrank), ref Chen 2016

Nc1nc(NC2CC2)c2ncn([C@H]3C=C[C@@H](CO)C3)c2n1 [abacavir]
DILI Score (FDA) (1-8) [1, 10]: 8 | DILI severity category [2, 11]: vMost-DILI-Concern

C[C@H]1O[C@H](O[C@H]2[C@H](O)[C@@H](O)[C@@H](O[C@H]3[C@H](O)[C@@H](O)C(O)O[C@@H]3CO)O[C@@H]2CO)[C@H](O)[C@@H](O)[C@@H]1N[C@H]1C=C(CO)[C@@H](O)[C@H](O)[C@H]1O (stereo partly shown) [acarbose]
DILI Score (FDA) (1-8) ([1]; in vivo): 5 | DILI +VE (5-8), DILI -VE (-4) ([2]; in vivo): +VE | DILI severity category ([2]; in vivo): vMost-DILI-Concern

CN(C)c1nc(N(C)C)nc(N(C)C)n1 [altretamine]
DILI Score (FDA) (1-8) [1, 10]: 2 | DILI severity category [2, 11]: Ambiguous DILI-concern | DILI +VE (5-8), DILI -VE (-4) [2, 12]: -VE

CC(C(=O)O)c1ccc2oc(-c3ccc(Cl)cc3)nc2c1 (stereo not shown) [benoxaprofen]
Inhibition of rBsep cutoff<1& cmax u>.2 (rBsep): +VE | Inhibition of rBsep cutoff<3 (rBsep): +VE | hLiMTs ATP <100uM (hLiMTs): -VE | THLE-Null [3]: -VE | THLE-Null/3A4 [3]: -VE | Cluster 1-6 +VE Assay [4]: +VE | Bayesian Machine Learning [5]: +VE | In vivo DILI ([6]; ref Aleo 2019): +VE | In vivo DILI ([6]; ref Dawson 2012): +VE | In vivo DILI ([6]; ref Garside 2014): +VE | In vivo DILI ([6]; ref Gustafsson 2014): +VE | In vivo DILI ([6]; ref Proctor 2017): +VE | In vivo DILI ([6]; ref Schadt 2015): +VE | In vivo DILI ([6]; ref Vorrink 2018): +VE | In vivo DILI ([6]; ref Williams 2019): +VE | PHH ATP <100uM (PHH): -VE | hLiMTs ATP <20 x Cmax (PHH spheroids): -VE | Cellular toxicity (3T3 cells) [7]: -VE | Combined Assay [7]: +VE | GSH adduct HML [7]: -VE | Hepatocyte cellular toxicity [7]: -VE | MitoTox 3T3 [7]: -VE | TDI CYP3A4 [7]: -VE | hBSEP inhibition [7]: -VE | Partition Hybrid HRM Score [8]: +VE | Ro2 Hybrid HRM Score [8]: +VE | DILI +VE (5-8), DILI -VE (-4) ([2]; ref Chen 2016): +VE | DILI severity category ([2]; ref Chen 2016): vMost-DILI-Concern

CC(C)NCC(O)COc1ccc(COCCOC(C)C)cc1 (stereo not shown) [bisoprolol]
DILI Score (FDA) (1-8) [1, 10]: 3 | DILI severity category [2, 11]: Ambiguous DILI-concern | DILI +VE (5-8), DILI -VE (-4) [2, 12]: -VE

CS(=O)(=O)OCCCCOS(C)(=O)=O [busulfan]
In vivo DILI ([6]; […]): +VE | In vivo DILI ([6]; ref Porceddu 2012): +VE | DILI Score (FDA) (1-8) ([1]; ref Chen 2011): 8 | in vitro data EC2<=1x Cmax [9]: +VE | in vitro data EC20<=2uM [9]: -VE | DILI +VE (5-8), DILI -VE (-4) ([2]; ref Chen 2016): +VE | DILI severity category ([2]; ref Chen 2016): vMost-DILI-Concern

Nc1ccn([C@@H]2O[C@H](CO)[C@@H](O)[C@@H]2O)c(=O)n1 [cytarabine]
In vivo DILI ([6]; in vivo): +VE | DILI Score (FDA) (1-8) ([1]; in vivo): 3 | DILI +VE (5-8), DILI -VE (-4) ([2]; in vivo): +VE | DILI severity category ([2]; in vivo): vMost-DILI-Concern

O=C(O)c1ccc(-n2nc(-c3ccccc3O)nc2-c2ccccc2O)cc1 [deferasirox]
DILI Score (FDA) (1-8) [1, 13]: 7 | DILI +VE (5-8), DILI -VE (-4) [2, 14]: +VE | DILI severity category [2, 15]: vMost-DILI-Concern

CC(=O)O[C@@]12CO[C@@H]1C[C@H](O)[C@@]1(C)C(=O)[C@H](O)C3=C(C)[C@@H](OC(=O)[C@H](O)[C@@H](NC(=O)OC(C)(C)C)c4ccccc4)C[C@@](O)([C@@H](OC(=O)c4ccccc4)[C@H]21)C3(C)C [docetaxel]
DILI Score (FDA) (1-8) [1, 13]: 8 | DILI +VE (5-8), DILI -VE (-4) [2, 14]: +VE | DILI severity category [2, 15]: vLess-DILI-Concern

CC[C@@H](CO)NCCN[C@@H](CC)CO [ethambutol]
In vivo DILI ([6]; ref Aleo 2019): +VE | DILI Score (FDA) (1-8) ([1]; ref Chen 2011): 8 | Partition Hybrid HRM Score [8]: -VE | Ro2 Hybrid HRM Score [8]: -VE | DILI +VE (5-8), DILI -VE (-4) ([2]; ref Chen 2016): +VE | DILI severity category ([2]; ref Chen 2016): vMost-DILI-Concern

CCc1cccc2c3c([nH]c12)C(CC)(CC(=O)O)OCC3 (stereo not shown) [etodolac]
In vivo DILI ([6]; ref Aleo 2019): +VE | DILI Score (FDA) (1-8) ([1]; ref Chen 2011): 8 | Ro2 Hybrid HRM Score [8]: +VE | DILI +VE (5-8), DILI -VE (-4) ([2]; ref Chen 2016): +VE | DILI severity category ([2]; ref Chen 2016): vMost-DILI-Concern

CC(C(=O)O)c1cccc(Oc2ccccc2)c1 (stereo not shown) [fenoprofen]
In vivo DILI ([6]; ref Aleo 2019): +VE | DILI Score (FDA) (1-8) ([1]; ref Chen 2011): 8 | Partition Hybrid HRM Score [8]: +VE | Ro2 Hybrid HRM Score [8]: +VE | DILI +VE (5-8), DILI -VE (-4) ([2]; ref Chen 2016): +VE | DILI severity category ([2]; ref Chen 2016): vMost-DILI-Concern

Nc1nc(O)c2ncn(COC(CO)CO)c2n1 [ganciclovir]
DILI Score (FDA) (1-8) [1, 10]: 7 | DILI severity category [2, 11]: Ambiguous DILI-concern | DILI +VE (5-8), DILI -VE (-4) [2, 12]: -VE

CCCCCCCCCCC[C@@H](C[C@@H]1OC(=O)[C@H]1CCCCCC)OC(=O)[C@H](CC(C)C)NC=O [orlistat]
In vivo DILI ([6]; ref Aleo 2019): +VE | DILI Score (FDA) (1-8) ([1]; ref Chen 2011): 8 | Partition Hybrid HRM Score [8]: +VE | Ro2 Hybrid HRM Score [8]: +VE | DILI +VE (5-8), DILI -VE (-4) ([2]; ref Chen 2016): +VE | DILI severity category ([2]; ref Chen 2016): vMost-DILI-Concern

CCOC(=O)C1=C[C@@H](OC(CC)CC)[C@H](NC(C)=O)[C@@H](N)C1 [oseltamivir]
DILI Score (FDA) (1-8) [1, 10]: 3 | Partition Hybrid HRM Score, In vitro Assay ([8]; Partition hybrid): +VE | Ro2 Hybrid HRM Score, In vitro Assay ([8]; Rule of Two hybrid): -VE | DILI severity category [2, 11]: Ambiguous DILI-concern | DILI +VE (5-8), DILI -VE (-4) [2, 12]: -VE

C[C@]12COC(=O)C[C@@H]1CC[C@@H]1[C@@H]2CC[C@@]2(C)[C@H]1CC[C@]2(C)O [oxandrolone]
DILI Score (FDA) (1-8) [1, 16]: 8 | DILI +VE (5-8), DILI -VE (-4) [2, 17]: +VE | DILI severity category [2, 18]: vMost-DILI-Concern

CN(C)[C@@H]1C(O)=C(C(N)=O)C(=O)[C@@]2(O)C(O)=C3C(=O)c4c(O)cccc4[C@@](C)(O)[C@H]3[C@H](O)[C@@H]12 [oxytetracycline]
DILI Score (FDA) (1-8) [1, 16]: 2 | DILI +VE (5-8), DILI -VE (-4) [2, 17]: -VE | DILI severity category [2, 18]: Ambiguous DILI-concern

CC(C)(S)[C@@H](N)C(=O)O [penicillamine]
DILI Score (FDA) (1-8) [1, 16]: 3 | DILI +VE (5-8), DILI -VE (-4) [2, 17]: +VE | DILI severity category [2, 18]: vLess-DILI-Concern

C[C@]12C=CC(=O)C=C1CC[C@@H]1[C@@H]2[C@@H](O)C[C@@]2(C)[C@H]1CC[C@]2(O)C(=O)CO [prednisolone]
In vivo DILI ([6]; in vivo): -VE | DILI Score (FDA) (1-8) ([1]; in vivo): 3 | DILI +VE (5-8), DILI -VE (-4) ([2]; in vivo): +VE | DILI severity category ([2]; in vivo): vLess-DILI-Concern

C=CC[C@@H]1/C=C(\C)C[C@H](C)C[C@H](OC)[C@H]2O[C@@](O)(C(=O)C(=O)N3CCCC[C@H]3C(=O)O[C@H](/C(C)=C/[C@@H]3CC[C@@H](O)[C@H](OC)C3)[C@H](C)[C@@H](O)CC1=O)[C@H](C)C[C@@H]2OC [tacrolimus]
In vivo DILI ([6]; ref Aleo 2019): +VE | DILI Score (FDA) (1-8) ([1]; ref Chen 2011): 5 | Partition Hybrid HRM Score [8]: -VE | Ro2 Hybrid HRM Score [8]: -VE | DILI +VE (5-8), DILI -VE (-4) ([2]; ref Chen 2016): +VE | DILI severity category ([2]; ref Chen 2016): vLess-DILI-Concern

C[C@H](Cn1cnc2c(N)ncnc21)OCP(=O)(O)O [tenofovir]
DILI Score (FDA) (1-8) [1, 16]: 8 | DILI +VE (5-8), DILI -VE (-4) [2, 17]: +VE | DILI severity category [2, 18]: vLess-DILI-Concern

CCC[C@@]1(CCc2ccccc2)CC(O)=C([C@H](CC)c2cccc(NS(=O)(=O)c3ccc(C(F)(F)F)cn3)c2)C(=O)O1 [tipranavir]
In vivo DILI ([6]; ref Aleo 2019): +VE | DILI Score (FDA) (1-8) ([1]; ref Chen 2011): 8 | Partition Hybrid HRM Score [8]: +VE | Ro2 Hybrid HRM Score [8]: +VE | DILI +VE (5-8), DILI -VE (-4) ([2]; ref Chen 2016): +VE | DILI severity category ([2]; ref Chen 2016): vMost-DILI-Concern

CN(C)CCOc1ccc(/C(=C(/CCCl)c2ccccc2)c2ccccc2)cc1 [toremifene]
DILI Score (FDA) (1-8) [1, 16]: 3 | DILI +VE (5-8), DILI -VE (-4) [2, 17]: -VE | DILI severity category [2, 18]: Ambiguous DILI-concern

carboplatin
In vivo DILI ([6]; ref Aleo 2019): +VE | DILI Score (FDA) (1-8) ([1]; ref Chen 2011): 3 | Partition Hybrid HRM Score [8]: -VE | Ro2 Hybrid HRM Score [8]: -VE | DILI +VE (5-8), DILI -VE (-4) ([2]; ref Chen 2016): +VE | DILI severity category ([2]; ref Chen 2016): vLess-DILI-Concern
